Measurements taken from patent publication US20160052936A1, “SPIROINDOLINE DERIVATIVES FOR USE AS GONADOTROPIN-RELEASING HORMONE RECEPTOR ANTAGONISTS” (BAYER PHARMA AKTIENGESELLSCHAFT, priority 2013, published 2016).
Non-standard residues stand in square brackets, D forms with d. Residues, ends and D or L forms follow the SMILES beside them. dPhe(4-Cl) = N[C@H](Cc1ccc(Cl)cc1)C(=O)O; d2Nal = N[C@H](Cc1ccc2ccccc2c1)C(=O)O; dCit = NC(=O)NCCC[C@@H](N)C(=O)O; d3Pal = N[C@H](Cc1cccnc1)C(=O)O

Key:
[1] = target: T1, human GnRHR (Homo sapiens, UniProt P30968); experiment: Tag-Lite receptor binding assay; settings: Hek293 cells transiently transfected with human GnRHR; displacement of green-labelled GnRHR binding peptide; read-out: Potency in receptor binding assay using TAG-LITE technology, given as IC50
T1 construct: own knowledge: Tag-lite cells usually carry an N-terminal SNAP-tag fusion; host or cells: Hek293 cells, transiently transfected, supplied frozen
T1 sequence (P30968 1-328): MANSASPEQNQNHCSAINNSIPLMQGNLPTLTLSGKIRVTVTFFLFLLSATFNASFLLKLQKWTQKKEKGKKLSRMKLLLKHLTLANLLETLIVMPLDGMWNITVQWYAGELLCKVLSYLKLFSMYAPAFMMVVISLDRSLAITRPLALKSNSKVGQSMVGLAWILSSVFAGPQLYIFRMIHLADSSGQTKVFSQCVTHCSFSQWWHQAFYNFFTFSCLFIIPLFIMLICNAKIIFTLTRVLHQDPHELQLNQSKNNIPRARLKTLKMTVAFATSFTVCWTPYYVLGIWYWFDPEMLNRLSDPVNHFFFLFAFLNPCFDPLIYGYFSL
Source text: 2.2. Tag-Lite® Receptor Binding Assay
This binding assay is based on the fluorescence resonance energy transfer between fluorescence donor labelled human GnRHR and a green-labelled GnRHR binding peptide. Compounds interfering with the ligand binding side of the human GnRHR will replace the labelled peptide resulting in a signal decrease. The assay principle was established by Cisbio Bioassays (Bagnols-sur-Cèze Cedex, France) and further details are available on their homepage.
The assay procedure was further optimized for use in-house with reduced assay volumes. Frozen Hek293 cells, transiently transfected with human GnRHR and Terbium-labelling of the receptor, were supplied by Cisbio Bioassays as well as Tag-Lite buffer and green-labelled GnRHR binding peptide. Cells were thawed and transferred to cold Tag-Lite buffer. A volume of 8 μl of this cell suspension were added to 100 nl of a 160-fold concentrated solution of the test compound in DMSO pre-dispensed in a well of a white low-volume 384-well microtiter plate (Greiner Bio-One, Frickenhausen, Germany). The mixture was incubated for 5 min at room temperature. In the next step either 4 μl Tag-Lite buffer or as control 4 μl of an exceeding amount unlabelled binding peptide in Tag-Lite buffer were transferred to the mixture. The green-labelled GnRHR binding peptide was added in a final step at EC50 in a volume of 4 μl Tag-Lite buffer. After an incubation of 1 h at room temperature plates were measured in a microplate reader, e.g. a PHERAstar (BMG Labtechnologies, Offenburg, Germany) by using a specific optic module.
A ratio from the fluorescence emissions at 520 nm (green fluorescence) and at 490 nm (background signal of Terbium-labelled GnRHR) was calculated and the data were normalized (reaction without test compound=0% inhibition of binding of green-labelled peptide; reaction without test compound with exceeding amount unlabelled binding peptide=100% inhibition of binding of green-labelled peptide). On the same microtiter plate, compounds were tested at 10 different concentrations in the range of 12.5 μM to 0.64 nM (12.5 μM, 4.2 μM, 1.4 μM, 0.46 μM, 0.15 μM, 51 nM, 17 nM, 5.7 nM, 1.9 nM and 0.64 nM; dilution series prepared before the assay at the level of the 160-fold conc. stock solutions by serial 1:3 dilutions in 100% DMSO) in duplicate values for each concentration. By using an in-house software, the IC50 values were calculated by a 4 parameter fit.

[2] = target: T2, human GnRH receptor (Homo sapiens, UniProt P30968); experiment: IP-One HTRF assay with buserelin stimulation; assay type: cell-based; settings: CHO cells stably expressing human GnRH receptor; buserelin at EC80; read-out: Potency in IP-One HTRF assay with buserelin (at EC80) stimulation, given as IC50
T2 construct: host or cells: CHO cells stably expressing human GnRH receptor (line established by Prof. Thomas Gudermann)
T2 sequence (P30968 1-328): T1 sequence (P30968 1-328)
Source text: By using homogenous time-resolved fluorescence resonance energy transfer (HTRF), the generation of one component of the GnRH-R signalling cascade can be measured. After stimulation of CHO cells stably expressing human GnRH receptor (established by Prof. Thomas Gudermann, currently University of Marburg, Germany; supplied as frozen cell aliquots by Cell Culture Services, Hamburg, Germany) with the EC80 of the GnRH agonist buserelin, Gq protein-coupled receptor signalling cascade is activated resulting in PLC-dependent cleavage of PIP2 to Inositol-1,4,5-triphosphate (IP3) and Diacylglycerol. The second messenger IP3 is degraded intracellularly to myo-inositol. Inhibition of the final degradation step from Inositol-1-phosphate (IP1) to myo-inositol by addition of lithium chloride leads to accumulation of IP1 in the cells. In cell lysates, IP1 can be detected via an antibody-based HTRF detection technology, where IP1 can displace the FRET acceptor IP1-d2 from binding by Terbium-labelled anti-IP1 antibody as donor resulting in a signal decrease. Compounds were tested for their capability of inhibiting GnRH-R activation by buserelin. For all IP-One HTRF® assays reagents of Cisbio Bioassays (IP-One Tb Jumbo kit, #62IPAPEJ; Cisbio Bioassays, Bagnols sur Cèze Cedex, France) were used.
For the assay, frozen cell aliquots were thawed and a cell suspension (3.33×10^6 cells/mL) containing IP1-d2 (dilution 1:40) was prepared and incubated at 37° C. After 1 h 3 μl of the cell suspension were added to 50 nl of a 100-fold concentrated solution of the test compound in DMSO pre-dispensed in a well of a white low-volume 384-well microtiter plate (Greiner Bio-One, Frickenhausen, Germany). […] Plates were incubated for 1 h at 37° C. and 5% carbon dioxide before the cells were lysed by adding 3 μl Terbium-labelled anti-IP1 antibody (1:40) diluted in Conjugate & Lysis buffer as supplied with the kit. After an incubation for 1 h at 22° C. to enable complete cell lysis and antibody binding to free IP1 or IP1-d2, plates were measured in an HTRF reader, e.g. a RUBYstar, PHERAstar (both BMG Labtechnologies, Offenburg, Germany) or a Viewlux (PerkinElmer LAS, Rodgau-Jügesheim, Germany).
From the fluorescence emissions at 665 nm (FRET) and at 620 nm (background signal of Terbium-antibody), the ratio (emission at 665 nm divided by emission at 620 nm) was calculated and the data were normalized (reaction without test compound=0% inhibition; all other assay components except agonist=100% inhibition). On the same microtiter plate, compounds were tested at 10 different concentrations in the range of 20 μM to 1 nM (20 μM, 6.7 μM, 2.2 μM, 0.74 μM, 0.25 μM, 82 nM, 27 nM, 9.2 nM, 3.1 nM and 1 nM; dilution series prepared before the assay at the level of the 100-fold conc. stock solutions by serial 1:3 dilutions in 100% DMSO) in duplicate values for each concentration. By using an in-house software, the IC50 values were calculated by a 4 parameter fit.
Within the meaning of the present invention the antagonist activity is reflected by the ability of a compound of the invention to antagonize human GnRH receptor stimulation in IP-One HTRF® assay at least three times the standard deviation over the background level.

[3] = tested on: LH level in ovariectomized rats; experiment: LH suppression in the ovariectomized rat; assay type: in vivo; settings: 0.1 mg/kg i.p., 8 hours
Source text: 2.5. LH Suppression in the Ovariectomized Rat
The in vivo potency of GnRH antagonists can be quantified by a LH suppression test in ovariectomized rats. GnRH triggers the LH release from the pituitary mediated by GnRH receptors. Ovarectomy of adult female rats results in elevated levels of circulating LH due to a lack of negative feedback by gonadal steroids. GnRH antagonists suppress the release of LH and accordingly suppression of LH levels can be used to quantify the in vivo potency of GnRH antagonists.
Female adult rats were ovariectomized surgically and they were allowed to recover for at least one week. The animals received 0.5 mg/kg, 3 mg/kg or 10 mg/kg of Example 3.1 by single per oral administration. For comparison reasons a vehicle control and a positive control, 0.1 mg/kg cetrorelix (i.p.), were given once. At 0 min, 15 min, 30 min, 1 hour, 2 hours, 4 hours, 8 hours and 24 hours after compound administration blood was taken from the retro orbital plexus (n=6 per blood withdrawal) for the measurement of serum LH and serum compound levels.
As nonbinding explanatory example of compounds according to the invention FIG. 1 represents the LH level following administration of the compound according to Example 3.1, to ovariectomized adult rats. [Filled circle: Vehicle; Circle, dotted black line: Cetrorelix (0.1 mg/kg); Triangle: Example 3.1 (0.5 mg/kg); Reverse triangle: Example 3.1 (3 mg/kg); Diamond: Example 3.1 (10 mg/kg)]. Values are given as mean+standard deviation (n=6).

| Structure (SMILES) | IC50 [1] [nM] | IC50 [2] [nM] | LH suppression [3] |
| --- | --- | --- | --- |
| O=C(NCc1ncc(C(F)(F)F)cc1Cl)c1ccc2c(c1)C1(CCS(=O)(=O)CC1)[C@@H](C1CC1)N2S(=O)(=O)c1ccc(F)cc1 [Example 3.2, (2R)—N-{[3-chloro-5-(trifluoromethyl)pyridin-2-yl]methyl}-2-cyclopropyl-1-[(4-fluorophenyl)sulfonyl]-1,2,2′,3′,5′,6′-hexahydrospiro[indole-3,4′-thiopyran]-5-carboxamide 1′,1′-dioxide] | 748 | 2430 | – |
| CC(=O)N[C@H](Cc1ccc2ccccc2c1)C(=O)N[C@H](Cc1ccc(Cl)cc1)C(=O)N[C@H](Cc1cccnc1)C(=O)N[C@@H](CO)C(=O)N[C@@H](Cc1ccc(O)cc1)C(=O)N[C@H](CCCNC(N)=O)C(=O)N[C@@H](CC(C)C)C(=O)N[C@@H](CCCNC(=N)N)C(=O)N1CCC[C@H]1C(=O)N[C@H](C)C(N)=O [cetrorelix, reference compound] (Ac-[d2Nal][dPhe(4-Cl)][d3Pal]SY[dCit]LRP[dA]-NH2) | – | – | ca. 90% |
